Measured values reported in patent US5478864A, “Method for disinfection using a 1,n-bis(N^5 -trifluoromethyl-phenyl-N^1 -biguanido)-alkane” (Mitsubishi Materials Corp., priority 1991, dated 1995).
≈ marks a conversion by molar mass, not a printed value. Like-named read-outs stand apart in the source and are kept apart here.

Key:
[1] = test system: some Gram-negative bacteria, especially Pyocyaneus bacilli; conditions: cited from earlier work
[2] = administered to mucous membranes in a conventionally employed concentration; cited from earlier work
general bacteria = conditions: cited from earlier work
[3] = test system: Serratia marcescens IID 602; assay: minimum growth inhibition concentration, agar dilution; assay type: cell-based
Description: (§1) Germicidal activity of the compound prepared in Example 1 (Compound I) was evaluated by the minimum growth inhibition concentration method (based on the standard method stipulated by Japan Society of Chemotherapy) and the phenol coefficient method.
(§2) A portion of the digluconate salt of the compound of Example 1 was dissolved in water and the solution was heated to dryness on a water bath. The dried salt was dissolved in acetic acid (potentiometric titration grade) and the concentration thereof was determined by potentiometric titration using a perchloric acid solution. The gluconate acid salt solution, whose concentration was thus determined, was diluted to predetermined concentrations with sterilized water. Each 1 ml of the solution of each concentration was placed in a Petri dish, 9 ml of Mueller-Hinton agar (supplied by Difco) was added thereto and well mixed. Thus sensitivity test media were prepared. The concentrations of the compound were 200 μg/ml and 2^n times wherein (n=-8 to 2). Separately, microorganism strains indicated in Table 1 were subcultured in propagation media (using Mueller-Hinton broth supplied by Difco) at 37° C. for 24 hours. The microorganism concentration was adjusted to 10^6 /ml. The thus obtained cultures were respectively inoculated on a series of sensitivity measuring culture media using an inoculation rod. […] The results are shown in Table 1 together with the result on chlorhexidine as a control.
(§3) Compounds of formula I, wherein the trifluoromethyl group is located at the p-position and n is 2, 3, 5, 8 and 11, were prepared starting from ethylene diamine dichloride, 1,3-propane diamine dichloride, 1,5-pentane diamine dichloride, 1,8-octane diamine dichloride or 1,11-undecane diamine dichloride, sodium dicyanamide and 4-trifluoromethyl aniline hydrochloride in accordance with the procedures as described above and minimum growth inhibition concentration (MIC) was determined in the same manner as above.
(§4) Disinfecting effect of the above-prepared compounds was tested by measurement of minimum growth inhibition concentration and by the test for immediate effect in the same manner as in Example 3.
(§5) Compounds of formula I, wherein the trifluoromethyl group is located at the m-position and n is 2, 3, 5 and 8, 11 were prepared starting from ethylene diamine dihydrochloride, 1,3-propane diamine dihydrochloride, 1,5-pentane diamine dihydrochloride, 1,8-octane diamine dihydrochloride or 1,11-undecane diamine dihydrochloride, sodium dicyanamide and 3-trifluoromethylaniline hydrochloride in accordance with the procedures of Example 4 and germicidal activity thereof were determined in the same manner.

Escherichia coli IID 951 = assay: as above; assay type: cell-based
Description: as §1, §2, §3, §4, §5

[4] = test system: Pseudomonas aeruginosa IID 1042; assay: as above; assay type: cell-based; conditions: Pseudomonas aeruginosa, IID1042, Mueller-Hinton agar, read-out: MIC
Description: as §1, §2, §3, §4, §5

[5] = test system: Staphylococcus aureus FDA 209-P; assay: as above; assay type: cell-based; conditions: FDA209, Mueller-Hinton agar
Description: as §1, §2, §3, §4, §5

[6] = test system: Achromobacter xylosoxidans RIMD 0101001; assay: as above; assay type: cell-based; conditions: RIMD0101001, Mueller-Hinton agar, digluconate
Description: as §1, §2, §4

Escherichia coli IID 861 [7] = assay: as above; assay type: cell-based
Description: as §1, §2, §4

[8] = test system: Flavobacterium meningosepticum RIMD 0614002; assay: as above; assay type: cell-based; conditions: Elizabethkingia meningoseptica, RIMD0614002; Mueller-Hinton agar; digluconate
Description: as §1, §2, §4

Proteus vulgaris IID 874 = assay: as above; assay type: cell-based; conditions: IID874, Mueller-Hinton agar, digluconate
Description: as §1, §2, §4

[9] = test system: Pseudomonas cepacia (collected Chiba Univ.); assay: as above; assay type: cell-based; conditions: Burkholderia cepacia, Mueller-Hinton agar, digluconate
Description: as §1, §2, §4

[10] = test system: Escherichia coli NIHJ JC-2; assay: as above; assay type: cell-based
Description: as §1, §2, §4

[11] = test system: Alcaligenes faecalis IPO 13111; assay: as above; assay type: cell-based; conditions: IPO13111, Mueller-Hinton agar, digluconate
Description: as §1, §2, §4

[12] = test system: Klebsiella pneumoniae IID 865; assay: as above; assay type: cell-based
Description: as §1, §2, §4

[13] = test system: Pseudomonas aerugimosa (clinically collected); assay: as above; assay type: cell-based; conditions: Mueller-Hinton agar, digluconate
Description: as §1, §2, §4

[14] = test system: Staphylococcus epidermis IID 866; assay: as above; assay type: cell-based
Description: as §1, §2, §4

Escherichia coli IID 861 [15] = assay: test for immediate effect (phenol coefficient method); assay type: cell-based; conditions: of three runs, conc. 0.001%, 20° C.
Description: (§6) Immediate effect of this compound was evaluated in accordance with the phenol coefficient method described in "Directions for Hygienic Tests" compiled by the Ministry of Health and Welfare of Japan. The method is as follows. (1) Culture medium Each 10 ml of the bouillon described below was taken into test tubes and they were sterilized with high pressure steam at 120° C. for 20 minutes. (2) Test method Diluted solutions of a series of concentrations of the sample compound were prepared for each of microorganisms listed in Table 2. Each 10 ml of the solutions was put into an appraisal test tube and the test tubes were placed in a thermostat bath kept at 20° C. Each microorganism was subcultured in the above described bouillon medium for testing disinfectants for three generations (37° C. for 48 hours). Each 1 ml of each culture was placed in each of the above-described series of appraisal test tubes and well mixed. After 2.5, 5, 10 and 15 minutes, 0.1 ml of the content of each appraisal test tube was taken and inoculated onto each portion of the bouillon medium for testing disinfectants. […] Each test was carried out three times. Immediate effect of disinfectants was compared by number of test runs in which microorganism growth was observed. […]

[16] = test system: Pseudomonas aeruginosa IID 1042; assay: as above; assay type: cell-based; conditions: of three runs, conc. 0.03%, 20° C.
Description: as §6

[17] = test system: Staphylococcus aureus FDA 209-P; assay: as above; assay type: cell-based; conditions: of three runs, conc. 0.0005%, 20° C.
Description: as §6

[18] = gluconate salt; cited from earlier work
[19] = test system: Staphylococcus aureus (clin'ly col'ted MRSA); assay: minimum growth inhibition concentration, agar dilution (second MRSA line); assay type: cell-based; conditions: Mueller-Hinton agar, digluconate, clinically collected MRSA
Description: as §1, §2, §4

[20] = test system: Staphylococcus aureus (clin'ly col'ted MRSA); assay: minimum growth inhibition concentration, agar dilution (first MRSA line); assay type: cell-based
Description: as §1, §2, §4

other microorganisms = assay: minimum growth inhibition concentration, other microorganisms of Table 1; assay type: cell-based; conditions: against other microorganisms
Description: as §1
A portion of the digluconate salt of the compound of Example 1 was dissolved in water and the solution was heated to dryness on a water bath. The dried salt was dissolved in acetic acid (potentiometric titration grade) and the concentration thereof was determined by potentiometric titration using a perchloric acid solution. The gluconate acid salt solution, whose concentration was thus determined, was diluted to predetermined concentrations with sterilized water. Each 1 ml of the solution of each concentration was placed in a Petri dish, 9 ml of Mueller-Hinton agar (supplied by Difco) was added thereto and well mixed. Thus sensitivity test media were prepared. The concentrations of the compound were 200 μg/ml and 2^n times wherein (n=-8 to 2). Separately, microorganism strains indicated in Table 1 were subcultured in propagation media (using Mueller-Hinton broth supplied by Difco) at 37° C. for 24 hours. The microorganism concentration was adjusted to 10^6 /ml. The thus obtained cultures were respectively inoculated on a series of sensitivity measuring culture media using an inoculation rod. […]

Structure (SMILES) | MIC [4] [µg/mL] | MIC [5] [µg/mL] | MIC [6] [µg/mL] | MIC [8] [µg/mL] | MIC (Proteus vulgaris IID 874) [µg/mL] | MIC [9] [µg/mL] | MIC [11] [µg/mL] | MIC [13] [µg/mL] | number of test runs in which microorganism growth was observed (Escherichia coli IID 861 [15]; contact time 2.5 min) | number of test runs in which microorganism growth was observed (Escherichia coli IID 861 [15]; contact time 5.0 min) | number of test runs in which microorganism growth was observed (Escherichia coli IID 861 [15]; contact time 10.0 min) | number of test runs in which microorganism growth was observed (Escherichia coli IID 861 [15]; contact time 15.0 min) | number of test runs in which microorganism growth was observed ([16]; contact time 2.5 min) | number of test runs in which microorganism growth was observed ([16]; contact time 5.0 min) | number of test runs in which microorganism growth was observed ([16]; contact time 10.0 min) | number of test runs in which microorganism growth was observed ([16]; contact time 15.0 min) | number of test runs in which microorganism growth was observed ([17]; contact time 2.5 min) | number of test runs in which microorganism growth was observed ([17]; contact time 5.0 min) | number of test runs in which microorganism growth was observed ([17]; contact time 10.0 min) | number of test runs in which microorganism growth was observed ([17]; contact time 15.0 min) | also measured
[H]/N=C(\N/C(=N/[H])NCCCCCCNC(=N)NC(=N)Nc1ccc(Cl)cc1)Nc1ccc(Cl)cc1 [CHXD, chlorhexidine, reference compound] | 100 (≈ 198 µM) | 0.78 (≈ 1.54 µM) | 25 (≈ 49.5 µM) | 200 (≈ 396 µM) | 200 (≈ 396 µM) | 100 (≈ 198 µM) | 50 (≈ 98.9 µM) | 100 (≈ 198 µM) | 3 | 3 | 3 | 3 | 2 | 1 | 0 | 0 | 3 | 1 | 0 | 0 | effect against some Gram-negative bacteria, especially Pyocyaneus bacilli [1]: less effective; shock symptoms [2]: sometimes causes shock symptoms; disinfecting effect (general bacteria): exhibits disinfecting effect on a wide range of general bacteria; MIC ([3]; IID602): 6.25 µg/mL (≈ 12.4 µM); MIC (Escherichia coli IID 951; IID951): 1.56 µg/mL (≈ 3.09 µM); MIC (Escherichia coli IID 861 [7]; IID861): 1.56 µg/mL (≈ 3.09 µM); MIC ([10]; NIHJJC2): 1.56 µg/mL (≈ 3.09 µM); MIC ([12]; IID865): 6.25 µg/mL (≈ 12.4 µM); MIC ([14]; IID866): 1.56 µg/mL (≈ 3.09 µM); solubility in water [18]: high solubility in water; MIC [19]: 3.13 µg/mL (≈ 6.19 µM); MIC ([20]; MRSA): 6.25 µg/mL (≈ 12.4 µM)
N=C(NCCCCCCNC(=N)NC(=N)Nc1ccc(C(F)(F)F)cc1)NC(=N)Nc1ccc(C(F)(F)F)cc1 [Ex. 1, 1,6-bis(N^5-p-trifluoromethylphenyl-N^1-biguanido)-hexane] | 12.5 (≈ 21.8 µM) | 1.56 (≈ 2.72 µM) | 50 (≈ 87.3 µM) | 200 (≈ 349 µM) | 25 (≈ 43.7 µM) | 50 (≈ 87.3 µM) | 6.25 (≈ 10.9 µM) | 12.5 (≈ 21.8 µM) | 3 | 3 | 2 | 1 | 0 | 0 | 0 | 0 | 0 | 0 | 0 | 0 | germicidal effect compared with chlorhexidine (other microorganisms): effective at the same level as chlorhexidine; MIC ([3]; IID602, Mueller-Hinton agar, IID 602, read-out: MIC): 6.25 µg/mL (≈ 10.9 µM); MIC (Escherichia coli IID 951; IID951, Mueller-Hinton agar, IID 951, read-out: MIC): 3.13 µg/mL (≈ 5.47 µM); MIC (Escherichia coli IID 861 [7]; IID861, Mueller-Hinton agar, digluconate, IID 861, read-out: MIC): 3.13 µg/mL (≈ 5.47 µM); MIC ([10]; NIHJJC2, Mueller-Hinton agar, digluconate, NIHJ JC-2, read-out: MIC): 3.13 µg/mL (≈ 5.47 µM); MIC ([12]; IID865, Mueller-Hinton agar, digluconate, read-out: MIC): 3.13 µg/mL (≈ 5.47 µM); MIC ([14]; IID866, Mueller-Hinton agar, digluconate, IID 866, read-out: MIC): 1.56 µg/mL (≈ 2.72 µM); MIC [19]: 1.56 µg/mL (≈ 2.72 µM); MIC ([20]; Mueller-Hinton agar, digluconate, clinically collected MRSA, first line, read-out: MIC): 6.25 µg/mL (≈ 10.9 µM)
